Patent US7022718B2, “Pyridine and pyrimidine derivatives” (Hoffmann-La Roche Inc., priority 2002, dated 2006)
Like-named read-outs stand apart in the source and are kept apart here.

Target: human DPP-IV (Homo sapiens, UniProt P27487)
Test: DPP-IV activity assay (fluorometric / colorimetric), IC50 determination
Experimental: Activity of DPP-IV inhibitors are tested with natural human DPP-IV derived from a human plasma pool or with recombinant human DPP-IV. Human citrate plasma from different donors is pooled, filtered through a 0.2 micron membrane under sterile conditions, and aliquots of 1 ml are shock frozen and stored at −120° C. until used. In the calorimetric DPP-IV assay 5 to 10 μl human plasma, and in the fluorometric assay 1.0 μl of human plasma in a total assay volume of 100 μl is used as an enzyme source. […] Human DPP-IV is expressed and purified from the culture medium using conventional column chromatography including size exclusion and anion and cation chromatography. […] In the calorimetric DPP-IV assay 20 ng rec.-h DPP-IV and in the fluorometric assay 2 ng rec-h DPP-IV in a total assay volume of 100 μl is used as an enzyme source.
Initial rate constants are calculated by best fit linear regression.
DPP-IV activity assays are performed in 96 well plates at 37° C. in a total assay volume of 100 μl. The assay buffer consists of 50 mM Tris/HCl pH 7.8 containing 0.1 mg/ml BSA and 100 mM NaCl. Test compounds are solved in 100% DMSO, diluted to the desired concentration in 10% DMSO/H2O. The final DMSO concentration in the assay is 1% (v/v). At this concentration enzyme inactivation by DMSO is <5%. Compounds are with (10 minutes at 37° C.) and without preincubation with the enzyme. Enzyme reactions are started with substrate application followed by immediate mixing.
Kinetic parameters of the enzyme reaction are calculated at least 5 different substrate concentrations and at least 5 different test compound concentrations.

Sequence of human DPP-IV (P27487 31-766): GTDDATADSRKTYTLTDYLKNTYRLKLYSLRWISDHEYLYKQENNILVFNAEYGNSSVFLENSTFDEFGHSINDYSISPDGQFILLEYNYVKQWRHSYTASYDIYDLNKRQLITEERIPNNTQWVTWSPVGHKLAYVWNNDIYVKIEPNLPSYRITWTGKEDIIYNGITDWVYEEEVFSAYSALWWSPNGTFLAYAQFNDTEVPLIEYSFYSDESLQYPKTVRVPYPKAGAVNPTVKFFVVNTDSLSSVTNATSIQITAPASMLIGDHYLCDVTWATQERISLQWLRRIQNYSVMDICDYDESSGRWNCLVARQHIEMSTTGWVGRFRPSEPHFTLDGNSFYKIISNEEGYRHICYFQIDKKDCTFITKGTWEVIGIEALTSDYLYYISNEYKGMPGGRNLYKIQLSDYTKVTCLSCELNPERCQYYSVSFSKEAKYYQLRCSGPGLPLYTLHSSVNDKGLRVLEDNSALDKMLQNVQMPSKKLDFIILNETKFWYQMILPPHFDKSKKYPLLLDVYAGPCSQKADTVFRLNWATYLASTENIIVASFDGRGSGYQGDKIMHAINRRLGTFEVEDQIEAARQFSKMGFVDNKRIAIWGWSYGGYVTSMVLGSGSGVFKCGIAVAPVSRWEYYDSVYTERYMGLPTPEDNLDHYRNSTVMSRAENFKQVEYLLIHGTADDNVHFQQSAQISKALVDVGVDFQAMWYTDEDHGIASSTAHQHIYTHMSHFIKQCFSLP

Compound | IC50 | IC50 (natural human DPP-IV from human plasma pool or recombinant human DPP-IV, 37° C., pH 7.8)
Cc1ccc(-c2nc(-c3ccccc3)nc(N)c2CN)c(C)c1 [Example 11, 5-Aminomethyl-6-(2,4-dimethyl-phenyl)-2-phenyl-pyrimidin-4-ylamine] | 172 nM | –
NCc1c(N)nc(-c2cccc(F)c2)nc1-c1ccc(Cl)cc1Cl [Example 13, 5-Aminomethyl-6-(2,4-dichloro-phenyl)-2-(3-fluoro-phenyl)-pyrimidin-4-ylamine] | – | 0.2 nM
NCc1c(N)nc(-c2cc3ccccc3o2)nc1-c1ccc(Cl)cc1Cl [Example 16, 5-Aminomethyl-2-benzofuran-2-yl-6-(2,4-dichloro-phenyl)-pyrimidin-4-ylamine] | 0.7 nM | –
NCc1c(N)nc(N2CCCCCC2)nc1-c1ccc(Cl)cc1Cl [Example 20, 5-Aminomethyl-2-azepan-1-yl-6-(2,4-dichloro-phenyl)-pyrimidin-4-ylamine] | 3 nM | –
CSc1nc(N)c(CN)c(-c2ccc(Cl)cc2Cl)n1 [Example 23, 5-Aminomethyl-6-(2,4-dichloro-phenyl)-2-methylsulfanyl-pyrimidin-4-ylamine] | 13 nM | –
CCc1ccc(-c2nc(-c3ccccc3)nc(N)c2CN)cc1 [Example 43, 5-Aminomethyl-6-(4-ethyl-phenyl)-2-phenyl-pyrimidin-4-ylamine] | 389 nM | –
CNCc1c(N)nc(-c2ccccc2)nc1-c1ccc(Cl)cc1Cl [Example 76, 6-(2,4-Dichloro-phenyl)-5-methylaminomethyl-2-phenyl-pyrimidin-4-ylamine] | 391 nM | –
Cc1c(-c2ccccc2)nc(N)c(CN)c1-c1ccc(Cl)cc1Cl [Example 79, 3-Aminomethyl-4-(2,4-dichloro-phenyl)-5-methyl-6-phenyl-pyridin-2-ylamine] | 873 nM | –
